Data as given in patent publication US7074834B2, “Long acting, reversible veterinary sedative and analgesic and method of use” (University of Kentucky Foundation, priority 2000, dated 2006).
Values belong to the compound of their own block, whether it stands above or below them.

Key:
Type in all cases: in vivo
[1] = test system: horse; assay: Sedation / head ptosis response in the standing horse after intravenous administration
Description: As used herein by “rapid onset” is meant to include the time interval from administration of the active, e.g., guanabenz acetate, until the drug begins to take effect and produce the intended response, e.g., sedation and/or tranquilization and /or analgesia. For the compositions disclosed herein, this time interval typically ranges from between about 1 minute to about 30 minutes. As one of skill in the art can appreciate, the length of time for onset of action can vary, e.g., depending upon the route of administration, the species, age, size, and health status of the animal and the like. In the adult horse, for example, the clinical signs of sedation will begin to appear within 1–3 minutes following a single intravenous administration of about 100 mg of guanabenz or guanabenz acetate.
The term “analgesia” or “analgesic” is meant to include any conscious relief from a painful stimulus in an animal. In general, an analgesic is an agent that alleviates pain or reduces the sensation of pain without causing loss of consciousness. The term “long lasting” is generally meant to include the time interval from the onset of effect of the active until the effect has waned to a subclinical level. Thus, the establishment of this time interval is subjective but is readily ascertainable in the hands of the skilled artisan. Of course the duration of action of the active can vary, e.g., depending upon the route of administration, the species, age, size, and health status of the animal and the like. In the adult horse, for example, the clinical signs of sedation will begin to appear within 1–3 minutes following a single intravenous administration of about 100 mg of guanabenz or guanabenz acetate and the duration of action is up to about 4 hours.
In one embodiment, the present invention provides the surprising discovery that guanabenz acetate, after a single intravenous dose of about 0.2 milligrams per kilogram per horse, produces a rapid onset of sedation and/or, tranquilization and/or analgesia in the standing horse.
The solid circles (● - - - ●) show head ptosis measured as cm above ground level after rapid intravenous administration of guanabenz.

[2] = test system: horse; assay: Heat lamp equine analgesia model; details: horse 1000 lbs, 0.2 mg/kg (100 mg) intravenously
Description: A horse (1000 lbs) in was administered guanabenz at a dose of 0.2 mg/kg (100 mg) intravenously at time point 0 (see FIG. 2). […] Note also that this response is maintained at full intensity for approximately 30 minutes and declines thereafter, and returns to control values by 6 hrs post administration. The solid circles (● - - - ●) show the increasing control latency in our heat lamp equine analgesia model after administration of guanabenz at indicated zero time.

[3] = Blood glucose, urine glucose, urine production and urine specific gravity after intravenous administration; details: horse about 1000 lbs, 0.2 mg/kg (100 mg) intravenously
Description: Referring now to FIG. 3, a horse (about 1000 lbs) was administered guanabenz at a dose of 0.2 mg/kg (100 mg) intravenously at time point 0. […] The solid circles (● - - - ●) show blood glucose levels after rapid intravenous administration of guanabenz. Note also the increase in urine glucose levels after the administration of guanabenz. The open circles (◯-◯) show the corresponding urinary concentrations of glucose after this administration.
In FIG. 3b, note how the dose of 100 mg of guanabenz yields an increase in urine production as indicated by the increase in volume of urine collected. The solid circles (● - - - ●) show volume of urinary output after rapid intravenous administration of guanabenz. Note also in FIG. 3c, the decrease in specific gravity of the urine after the administration of the guanabenz. The solid circles (● - - - ●) show the corresponding urinary specific gravity values after this administration.

[4] = standing horse, single intravenous dose of about 0.2 mg/kg

SMILES: N=C(N)N/N=C/c1c(Cl)cccc1Cl [guanabenz acetate]
duration for which sedation and head ptosis are maintained [1, 4]: up to four hours | onset of profound sedation and head ptosis [1, 4]: within one minute

blood glucose levels, FIG. 3a [3]: transient increase | specific gravity of the urine, FIG. 3c [3]: decrease | urine glucose levels, FIG. 3a [3]: increase | urine production (volume of urine collected), FIG. 3b [3]: increase
SMILES: N=C(N)N/N=C/c1c(Cl)cccc1Cl [guanabenz, 1-[2,6-dichlorobenzylidine-amino]-3-guanidine]
onset of analgesia response (desensitization to the heat lamp), FIG. 2 [2]: very rapid onset | time for which the analgesia response is maintained at full intensity [2]: approximately 30 minutes | time at which the analgesia response returns to control values ([2]; post administration): ≤ 6 h | head ptosis response (cm above ground level), FIG. 1 ([1]; horse about 1000 lbs, 0.2 mg/kg (100 mg) intravenously): very rapid onset

SMILES: COC(=O)[C@@H]1[C@H]2C[C@H]3c4[nH]c5ccccc5c4CCN3C[C@@H]2CC[C@@H]1O [yohimbine]
reversal of guanabenz tranquilization and sedation (head ptosis), FIG. 1 ([1]; horse given guanabenz 100 mg i.v., yohimbine 60 mg intravenously): rapid reversal | reversal of guanabenz acetate sedation and head ptosis response ([1]; horse, guanabenz acetate about 0.2 mg/kg i.v., antagonist given intravenously): rapidly reversible
